Here are results for 14 compounds from PubChem BioAssay (NCI).

Common to all, as to assay: growth of human tumour cells (NCI), 48 h
Assay [1] deals with NCI-H226 lung.
The test system of assay [2] is HL-60(TB) leukemia.
The subject of assay [3] is HOP-92 NSCLC.
Assay [4] relates to OVCAR-3 ovarian.
The test system of assay [5] is SK-MEL-28 melanoma.
Assay [6] has as its system M14 melanoma.
In assay [7] the test system is OVCAR-4 ovarian.
Assay [8] has as its system 786-0 renal.
Assay [9] concerns SF-539 CNS.

The structures appear in SMILES notation. Where “and” joins values, the source holds several entries; their conditions need not be identical. Identical values can stand only once.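 Exposure lasted 48 hours, with cells grown in 96-well plates and compounds tested at five concentrations. At the GI50, growth is halved. TGI denotes the concentration required for complete inhibition of growth.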 Some results are limits rather than exact numbers.

Take `COc1ccc(/C=C/C(C(=O)O)C(=O)O)cc1`: the TGI was above 100 µM in [1]; 74.7 µM in [2]; above 100 µM in [3]; above 100 µM in assay [4]; above 100 µM in assay [5]; above 100 µM in assay [6]. Also, the TGI in assay [7], in [8] and in [9] was above 100 µM in each case.

Consider `CCc1cccc(C(C)CC)c1NC(=O)CC1C(=O)Nc2ccccc2S1=O` (stereo not drawn), for which the TGI was above 100 µM in assay [1]; above 100 µM in assay [2]; 46.3 µM in assay [3]; above 100 µM in [4]; 68.1 µM in [5]; 55.8 µM in [6]. Also, the TGI is 47.9 µM in assay [7], above 100 µM in assay [8] and 46.2 µM in assay [9].

Regarding `C=CCNC(=S)OCCCCCCCCCC`, the TGI in [2] was determined as 53.5 µM; in [5], 44.9 µM; in assay [6], 32.7 µM; in assay [7], 30.5 µM; in assay [8] it was 32.6 µM; in assay [9], 34 µM.

Consider `COc1cc(/C=C/C(=O)c2cc(OC)c(OC)c(OC)c2)cc(OC)c1OC`, for which the GI50 was 6.36 µM in [1]; 1.21 µM in [2]; 2.53 µM in assay [3]; 1.91 µM in [4]; 8.57 µM in assay [5]; 2.82 µM in [6]. Besides, the GI50 in [7] is 3.63 µM; in assay [8], 3.07 µM; in [9] it was 3.21 µM. Moreover, the TGI is 87.4 µM in assay [1]; 11.2 µM in [2]; 20.5 µM in [3]; 4.21 µM in [4]; 24.3 µM in [5]; 12.7 µM in assay [6]. Moreover, the TGI in [7] amounted to 57.8 µM; in [8], 11.3 µM; in assay [9] it was 12.9 µM.

Turning to `O=C(/C=C/c1ccc(Cl)cc1)c1ccncc1`, the TGI in assay [1] was above 100 µM; in assay [2], 67.3 µM; in assay [3], above 100 µM; in [4], above 100 µM; in assay [5], above 100 µM; in assay [6] it was above 100 µM. In addition, the TGI in assay [7], in assay [8] and in assay [9] was above 100 µM in each case.

Consider `COC(=O)C(=O)C(C#N)c1ccc(Cl)c(Cl)c1` (stereo not drawn), for which the TGI in assay [1], in assay [2], in assay [3], in [4], in [5] and in assay [6] was above 100 µM throughout. Besides, the TGI in assay [8] and in assay [9] was above 100 µM throughout.

On to `Cc1nn(C)c(=S)n(C)c1=O`, for which the TGI in assay [1] is above 100 µM; in assay [2] it was 6.47 µM; in assay [3], 1.42 µM; in assay [4] it was above 100 µM; in [5] it was above 100 µM; in assay [6], above 100 µM. Besides, the TGI was above 100 µM in assay [7], 20.3 µM in assay [8] and 21.9 µM in [9].

As for `Nc1nc(Nc2ccc3c(c2)CCC(N2CCCC2)CC3)nn1-c1cc2c(nn1)-c1ccccc1CCC2` (stereo not drawn), the GI50 in assay [2] is 1.01 µM; in [3] it was 0.234 µM; in [4] it was 1.4 µM; in [5], 1.61 µM; in [6], 0.957 µM; in assay [7] it was 1.15 µM. The GI50 in assay [8] was 1.1 µM; in assay [9], 0.787 µM. For the same compound, the TGI in assay [2] was 2.75 µM; in [3], 1.69 µM; in assay [4], 2.93 µM; in assay [5], 3.01 µM; in assay [6], 2.27 µM; in assay [7] it was 2.56 µM. Further, the TGI was 2.49 µM in [8] and 2.1 µM in assay [9].

For the compound `CC1=C(c2cc(C(=O)Nc3cccc(C(F)(F)F)c3)nc(NC#N)n2)Sc2ccccc2N1`, the TGI in assay [1], in assay [2], in [3], in assay [4], in [5] and in [6] was above 100 µM throughout. The TGI in assay [7], in assay [8] and in assay [9] was above 100 µM each time.

Regarding `NC(=S)N/N=C(\C(=O)Nc1ccc(Cl)c(Cl)c1)C1=NN(c2ccccc2)C(c2cccc([N+](=O)[O-])c2)CC1=O` (stereo not drawn), the TGI is 93.6 µM in assay [1]; above 100 µM in assay [2]; 51.4 µM in assay [4]; above 100 µM in assay [5]; above 100 µM in assay [6]; 63 µM in [7]. Moreover, the TGI in assay [8] turned out to be 36.8 µM; in assay [9] it was 50.8 µM.

Take `CN(C)CCNC(=O)c1cccc2c1nc(-c1ccccn1)c1ccccc12`: the TGI in assay [2] turned out to be 34.8 µM; in assay [3], 39.7 µM; in [4] it was 38.6 µM; in assay [5], 29.9 µM; in assay [6], 32.2 µM; in assay [7], 42.2 µM. Also, the TGI in assay [8] was found to be 43.7 µM; in assay [9] it was 30.4 µM.

With `O=C(O/N=C1/CCCC/C1=C\c1ccccc1)c1ccc(Cl)cc1`, the TGI in [1], in assay [2], in assay [3], in [4], in assay [5] and in assay [6] was above 100 µM throughout. For the same compound, the TGI in assay [7], in assay [8] and in assay [9] was above 100 µM in each case.

Turning to `Cc1cccc(N2C(=O)C(=O)C(c3nc4ccccc4s3)C(=O)C2=O)c1C`, the TGI in assay [1], in assay [3], in assay [4], in assay [5], in assay [6] and in assay [7] was above 100 µM in each case. The TGI in assay [8] and in assay [9] was above 100 µM in each case.

As for `O=[N+]([O-])c1ccc(O)c2ncccc12`, the TGI in assay [1] was > 100 µM and 18.6 µM; in [3], 82.6 µM and 21.3 µM; in [5], > 100 µM and 24.7 µM; in [6], > 100 µM and 10.5 µM; in assay [8], > 100 µM and 11.6 µM; in assay [9] it was > 100 µM and 20.8 µM. Further, the GI50 in assay [3] was 19.1 µM and 4.22 µM.
